Data from article PMC3310203 (Journal of Medicinal Chemistry, 2012).
pEC50, pKi: −log10 of the molar value. Entries after “also recorded” stand apart in the source; their conditions may differ. Read-outs that look alike come from different tables or passages of the source.

How the values were obtained:
Caco-2 cell = Caco-2 cell penetration assay; assay type: in vitro ADME
[1] = ATZ for comparison, cited from earlier work
HIV = test: In vitro anti-HIV activity in MT4 cells; assay type: cell-based; conditions: for times higher potency than 13a in the cell-based antiviral activity assay: fold versus 13a
HIV-1 protease = HIV-1 protease (Human immunodeficiency virus type 1 group M subtype B, UniProt P04585); test: HIV protease inhibition, fluorometric assay; assay type: biochemical; conditions: for pKi: Ki, fluorometric assay, pH 5.0, 30 °C, 5 µM substrate
Metabolic stability = assay type: in vitro ADME, human
[2] = p-bromide inhibitors 13a and 19a compared

SMILES | permeability in the Caco-2 study (in words) (Caco-2 cell) | activity in the enzyme assay (in words) (HIV-1 protease) | activity in the cell-based antiviral assay (in words) (HIV) | also measured
COC(=O)N[C@H](C(=O)NN(CC[C@@]1(Cc2ccccc2)C(=O)N([C@H]2c3ccccc3C[C@H]2O)C[C@@H]1O)Cc1ccc(-c2cccnc2)cc1)C(C)(C)C [Compound 13h] | moderate permeability | – | – | –
COC(=O)N[C@H](C(=O)N[C@@H](Cc1ccccc1)[C@@H](O)CN(Cc1ccc(-c2ccccn2)cc1)NC(=O)[C@@H](NC(=O)OC)C(C)(C)C)C(C)(C)C [ATZ, Atazanavir] | – | – | – | Clint ([1]; ref 23): 90 μL min^–1 mg^–1; Clint ([1]; ref 64): 140 μL min^–1 mg^–1
COC(=O)N[C@H](C(=O)NN(CC[C@@]1(Cc2ccccc2)C(=O)N([C@H]2c3ccccc3C[C@H]2O)C[C@H]1O)Cc1ccc(-c2ccncc2)cc1)C(C)(C)C [Compound 13i] | – | – | – | times higher potency than 13a in the cell-based antiviral activity assay (HIV): 10
COC(=O)N[C@H](C(=O)NN(CC[C@]1(Cc2ccccc2)C(=O)N([C@H]2c3ccccc3C[C@H]2O)C[C@H]1O)Cc1ccc(Br)cc1)C(C)(C)C [Compound 13b] | – | did not show any activity; also recorded: almost no inhibiting effect | did not show any activity; also recorded: almost no inhibiting effect | –
COC(=O)N[C@H](C(=O)NN(CC[C@]1(Cc2ccccc2)C(=O)N([C@H]2c3ccccc3C[C@H]2O)C[C@@H]1O)Cc1ccc(Br)cc1)C(C)(C)C [Compound 13c] | – | did not show any activity; also recorded: almost no inhibiting effect | did not show any activity; also recorded: almost no inhibiting effect | –
COC(=O)N[C@H](C(=O)NN(CC[C@@]1(Cc2ccccc2)C(=O)N([C@H]2c3ccccc3C[C@H]2O)C[C@H]1O)Cc1ccc(-c2cccnc2)cc1)C(C)(C)C [Compound 13g] | moderate permeability | – | – | times higher potency than 13a in the cell-based antiviral activity assay (HIV): 10
COC(=O)N[C@H](C(=O)NN(CCC[C@@]1(Cc2ccccc2)C(=O)N([C@H]2c3ccccc3C[C@H]2O)C[C@H]1O)Cc1ccc(Br)cc1)C(C)(C)C [Compound 19a] | high permeability | – | – | fold loss of potency versus 13a (Ki) (HIV-1 protease; [2]): 5; fold loss of potency versus 13a (EC50) (HIV; [2]): 5
COC(=O)N[C@H](C(=O)NN(CC[C@@]1(Cc2ccccc2)C(=O)N([C@H]2c3ccccc3C[C@H]2O[Si](C)(C)C(C)(C)C)C[C@H]1O[Si](C)(C)C(C)(C)C)Cc1ccc(Br)cc1)C(C)(C)C [Compound 12a] | – | did not show any activity; also recorded: did not show any inhibitory potency | did not show any activity | –
COC(=O)N[C@H](C(=O)NN(CC[C@@]1(Cc2ccccc2)C(=O)N([C@H]2c3ccccc3C[C@H]2O[Si](C)(C)C(C)(C)C)C[C@@H]1O[Si](C)(C)C(C)(C)C)Cc1ccc(Br)cc1)C(C)(C)C [Compound 12d] | – | did not show any activity; also recorded: did not show any inhibitory potency | did not show any activity | –
COC(=O)N[C@H](C(=O)NN(CC[C@@]1(Cc2ccccc2)C(=O)N([C@H]2c3ccccc3C[C@H]2O)C[C@@H]1O)Cc1ccc(Br)cc1)C(C)(C)C [Compound 13d] | good results | – | – | pKi (HIV-1 protease): > 8.00; metabolic clearance (in words) (Metabolic stability): High metabolic clearance
COC(=O)N[C@H](C(=O)NN(CC[C@@]1(Cc2ccccc2)C(=O)N([C@H]2c3ccccc3C[C@H]2O)C[C@H]1O)Cc1ccc(Br)cc1)C(C)(C)C [Compound 13a] | – | – | – | pKi (HIV-1 protease): > 8.00; pEC50 (HIV; Human immunodeficiency virus 1, MT4, antiviral activity, MT4 cells): > 6.00; metabolic clearance (in words) (Metabolic stability): High metabolic clearance
